Results as given in patent US7550582B2, “Polyamide nucleic acid derivatives and agents, and processes for preparing them” (sanofi-aventis Deutschland GmbH, priority 2000, dated 2009).

Tests used:
complementary RNA = test: Determining the melting temperatures (complementary RNA); type: binding; settings: 140 mM KCl, 10 mM sodium dihydrogen phosphate, 0.1 mM EDTA (pH 7.4); oligomer 0.5 to 1 OD260 per ml
Method: (§1) The melting temperatures were determined using an HP 8452A diode-array spectrophotometer, an HP 89090A Peltier element and HP Temperature Control Software Rev. B5.1 (from Hewlett Packard). Measurements were taken in 0.5° C./min steps in 140 mM KCl, 10 mM sodium dihydrogen phosphate, 0.1 mM EDTA (pH 7.4) as the buffer. The oligomer concentration was from 0.5 to 1 OD260 per ml.

complementary DNA = test: Determining the melting temperatures (complementary DNA); type: binding; settings: for Tm (DNA): 140 mM KCl, 10 mM sodium dihydrogen phosphate, 0.1 mM EDTA (pH 7.4), oligomer 0.5 to 1 OD260 per ml; for degree of binding towards complementary DNA and RNA compared with the uncharged PNA (reference substance): melting temperature experiment
Method: as §1

COS cells = test: Determining cell uptake after fluorescence labeling; type: cell-based; settings: PNA solution 10 μM, 37° C., examined after 2, 4 and 16 hours
Method: COS cells were allowed to grow to confluence in Dulbecco's MEM, which was supplemented with 10% FCS, in 5 cm Petri dishes. The cells were washed twice with serum-free DMEM. An area of approx. 1 cm^2 was scratched out in the middle of the Petri dish using a sterile needle. The PNA solution (10 μM) under investigation was applied in this area. The dish was incubated at 37° C. under a CO2 atmosphere. After 2, 4 and 16 hours, the cells were examined by fluorescence microscopy. For this, the cells were washed four times with serum-free DMEM, covered with a cover slip, and evaluated under the fluorescence microscope or by phase contrast. PNA-5 and PNA-6 were examined by fluorescence microscopy.

[1] = system: REH cells (human pre-B leukemia cells, DSM ACC 22); test: Inhibiting cell proliferation; type: cell-based; settings: 10 μM, after >4 days of incubation
Method: The sequence of PNA-6 is directed against the translation start of the Ha-ras mRNA. REH cells (human pre-B leukemia cells, DSM ACC 22) or A549 tumor cells were cultured, at 37° C. and under 5% CO2, in OptiMEM (Gibco BRL) containing 10% fetal calf serum (FCS, GIBCO-BRL). The cell density for the assay was approx. 1×10^6/ml. The PNA-6 (10 μM) was incubated with the cells in 24-well plates. After incubating at 37° C. and under 5% CO2 for 96 hours, the cell density was determined. Mean values for the cell density were determined from 3 individual wells at a given PNA concentration. […] After >4 days of incubation, the inhibition brought about by PNA-6 was greater than that brought about by a corresponding phosphorothioate oligonucleotide.

Ac-HN-tat tcc gtc at-hex [Reference, reference compound]
Tm (RNA) (complementary RNA): 56.6 °C
Tm (DNA) (complementary DNA): 41.9 °C

C16-p-t(oeg) at tcc gtc at-aminohexyl-p-fluorescein [PNA-6]
cell uptake by fluorescence microscopy, compared with the PNA with no hexadecyl radical (COS cells): taken up more efficiently
Tm (RNA) (complementary RNA): 56.9 °C
inhibition of proliferation compared with a corresponding phosphorothioate oligonucleotide [1]: greater
Tm (DNA) (complementary DNA): 44.1 °C
degree of binding towards complementary DNA and RNA compared with the uncharged PNA (reference substance) (complementary DNA): equally good or better degree of binding

p-t(oeg) at tcc gtc at-aminohexyl-p-fluorescein [PNA-5]
Tm (RNA) (complementary RNA): 56.9 °C
Tm (DNA) (complementary DNA): 41.8 °C
degree of binding towards complementary DNA and RNA compared with the uncharged PNA (reference substance) (complementary DNA): equally good or better degree of binding
